Experimental data reported in ChEMBL document CHEMBL5442334, “ASAP - In vitro safety pharmacology profile” (2024).

Experiments:
[1] = biological target: T1, Alpha-1A adrenergic receptor (Homo sapiens) (UniProt P35348); experiment: SafetyScreen: alpha1A Human Adrenoceptor GPCR Binding Antagonist Radioligand LeadHunter Assay, catalogue number: 2338; details: Test compound concentration 10.0 uM
T1 sequence (whole entry): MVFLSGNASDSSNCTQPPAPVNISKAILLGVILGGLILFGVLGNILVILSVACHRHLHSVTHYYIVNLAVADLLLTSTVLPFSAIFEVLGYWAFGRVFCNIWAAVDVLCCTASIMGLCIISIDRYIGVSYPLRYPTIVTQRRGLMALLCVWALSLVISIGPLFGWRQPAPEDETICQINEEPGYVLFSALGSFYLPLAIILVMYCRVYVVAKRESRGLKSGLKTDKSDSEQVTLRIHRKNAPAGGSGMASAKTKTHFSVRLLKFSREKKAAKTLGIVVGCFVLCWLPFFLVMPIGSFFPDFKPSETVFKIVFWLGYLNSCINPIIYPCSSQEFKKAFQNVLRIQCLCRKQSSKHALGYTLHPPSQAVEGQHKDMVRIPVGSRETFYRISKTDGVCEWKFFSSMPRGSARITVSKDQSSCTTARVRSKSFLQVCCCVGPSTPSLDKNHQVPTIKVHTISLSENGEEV

[2] = biological target: Cannabinoid receptor 2 (Homo sapiens) (UniProt P34972); experiment: SafetyScreen: CB2 Human Cannabinoid GPCR Binding Agonist Radioligand LeadHunter Assay, catalogue number: 37; details: Test compound concentration 10.0 uM
[3] = biological target: T2, Cholecystokinin receptor type A (Homo sapiens) (UniProt P32238); experiment: SafetyScreen: CCK1 (CCKA) Human Cholecystokinin GPCR Binding Agonist Radioligand LeadHunter Assay, catalogue number: 39; details: Test compound concentration 10.0 uM
T2 sequence (whole entry): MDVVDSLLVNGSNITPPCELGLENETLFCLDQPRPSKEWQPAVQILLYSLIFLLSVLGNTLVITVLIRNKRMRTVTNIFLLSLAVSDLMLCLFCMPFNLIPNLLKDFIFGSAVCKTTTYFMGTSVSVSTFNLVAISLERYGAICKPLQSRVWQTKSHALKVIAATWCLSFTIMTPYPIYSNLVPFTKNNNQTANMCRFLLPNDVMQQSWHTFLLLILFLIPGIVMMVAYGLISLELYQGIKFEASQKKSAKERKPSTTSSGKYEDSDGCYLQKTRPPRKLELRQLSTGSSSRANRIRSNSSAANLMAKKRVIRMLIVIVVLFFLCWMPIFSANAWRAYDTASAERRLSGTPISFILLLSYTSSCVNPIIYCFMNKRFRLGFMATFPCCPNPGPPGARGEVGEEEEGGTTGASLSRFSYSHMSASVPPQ

[4] = biological target: D(1A) dopamine receptor (Homo sapiens) (UniProt P21728); experiment: SafetyScreen: D1 Human Dopamine GPCR Binding Antagonist Radioligand LeadHunter Assay, catalogue number: 44; details: Test compound concentration 10.0 uM
[5] = biological target: T3, Amine oxidase [flavin-containing] A (Rattus norvegicus, UniProt P21396); experiment: SafetyScreen: Monoamine Oxidase A (MAO-A) Rat Binding Antagonist Radioligand LeadHunter Assay, catalogue number: 443; details: at 10 µM, test compound concentration 10 uM
T3 sequence (P21396 whole entry): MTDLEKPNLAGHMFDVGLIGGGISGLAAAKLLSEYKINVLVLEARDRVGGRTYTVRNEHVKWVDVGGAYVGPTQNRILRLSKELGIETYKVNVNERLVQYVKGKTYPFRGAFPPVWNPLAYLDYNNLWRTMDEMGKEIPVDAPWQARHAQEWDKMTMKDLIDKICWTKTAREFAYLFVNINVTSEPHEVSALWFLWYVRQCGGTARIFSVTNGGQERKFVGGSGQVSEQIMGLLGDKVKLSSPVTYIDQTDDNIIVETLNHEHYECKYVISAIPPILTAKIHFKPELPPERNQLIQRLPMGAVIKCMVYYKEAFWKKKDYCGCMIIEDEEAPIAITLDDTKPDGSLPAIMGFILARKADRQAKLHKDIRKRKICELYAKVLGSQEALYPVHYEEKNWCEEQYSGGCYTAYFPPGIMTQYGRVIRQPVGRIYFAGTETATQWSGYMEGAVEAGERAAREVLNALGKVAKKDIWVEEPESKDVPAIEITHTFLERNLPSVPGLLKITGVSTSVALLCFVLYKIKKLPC

[6] = biological target: Neuronal acetylcholine receptor; alpha4/beta2 (Homo sapiens) (UniProt P17787+P43681); experiment: SafetyScreen: nAChR (alpha4/beta2) Human Ion Channel Binding Agonist Radioligand LeadHunter Assay, catalogue number: 3029; format: protein-complex assay; details: Test compound concentration 10.0 uM
[7] = biological target: Kappa-type opioid receptor (Homo sapiens) (UniProt P41145); experiment: SafetyScreen: kappa (KOP) Human Opioid GPCR Binding Agonist Radioligand LeadHunter Assay, catalogue number: 4461; details: Test compound concentration 10.0 uM
[8] = biological target: Mu-type opioid receptor (Homo sapiens) (UniProt P35372); experiment: SafetyScreen: mu (MOP) Human Opioid GPCR Binding Agonist Radioligand LeadHunter Assay, catalogue number: 118; details: Test compound concentration 10.0 uM
[9] = biological target: T4, 5-hydroxytryptamine receptor 1A (Homo sapiens) (UniProt P08908); experiment: SafetyScreen: 5-HT1A Human Serotonin GPCR Binding Agonist Radioligand LeadHunter Assay, catalogue number: 131; details: Test compound concentration 10.0 uM
T4 sequence (whole entry): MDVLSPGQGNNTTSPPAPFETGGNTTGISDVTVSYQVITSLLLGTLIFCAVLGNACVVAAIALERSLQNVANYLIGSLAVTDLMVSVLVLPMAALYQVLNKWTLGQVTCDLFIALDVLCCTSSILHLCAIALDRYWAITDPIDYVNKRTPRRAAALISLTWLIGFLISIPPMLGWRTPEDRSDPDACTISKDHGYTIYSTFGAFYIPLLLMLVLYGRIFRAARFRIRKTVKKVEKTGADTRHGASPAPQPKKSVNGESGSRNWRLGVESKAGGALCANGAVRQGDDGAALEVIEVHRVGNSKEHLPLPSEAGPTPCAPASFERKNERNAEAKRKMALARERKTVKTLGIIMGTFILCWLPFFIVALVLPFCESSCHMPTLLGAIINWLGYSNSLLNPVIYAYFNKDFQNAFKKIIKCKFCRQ

[10] = biological target: 5-hydroxytryptamine receptor 2A (Homo sapiens) (UniProt P28223); experiment: SafetyScreen: 5-HT2A Human Serotonin GPCR Binding Agonist Radioligand LeadHunter Assay, catalogue number: 471; details: Test compound concentration 10.0 uM
[11] = biological target: 5-hydroxytryptamine receptor 2B (Homo sapiens) (UniProt P41595); experiment: SafetyScreen: 5-HT2B Human Serotonin GPCR [125I](±)DOI Binding Agonist Radioligand LeadHunter Assay, catalogue number: 1333; details: Test compound concentration 10.0 uM
[12] = biological target: Voltage-gated inwardly rectifying potassium channel KCNH2 (Homo sapiens, UniProt Q12809); experiment: SafetyScreen: hERG Human Potassium Ion Channel [3H] Dofetilide Binding Antagonist Radioligand SafetyScreen, catalogue number: 4094; details: at 10 µM, test compound concentration 10 uM
[13] = test system: Voltage-gated sodium channel; experiment: SafetyScreen: Sodium Ion Channel Site 2 (Non-Selective) Rat Ion Channel [3H] Batrachotoxinin Binding LeadHunter Assay, catalogue number: 169; format: protein assay; details: at 10 µM, test compound concentration 10 uM
[14] = biological target: cGMP-inhibited 3',5'-cyclic phosphodiesterase 3A (Homo sapiens) (UniProt Q14432); experiment: SafetyScreen: PDE3A Human Phosphodiesterase Enzymatic LeadHunter Assay, catalogue number: 4072; format: functional; details: Test compound concentration 10.0 uM
[15] = biological target: Cannabinoid receptor 1 (Homo sapiens) (UniProt P21554); experiment: SafetyScreen: CB1 Human Cannabinoid GPCR Binding Agonist Radioligand LeadHunter Assay, catalogue number: 4708; details: Test compound concentration 10.0 uM
Chain of Cannabinoid receptor 1 (Homo sapiens) (P21554 whole entry): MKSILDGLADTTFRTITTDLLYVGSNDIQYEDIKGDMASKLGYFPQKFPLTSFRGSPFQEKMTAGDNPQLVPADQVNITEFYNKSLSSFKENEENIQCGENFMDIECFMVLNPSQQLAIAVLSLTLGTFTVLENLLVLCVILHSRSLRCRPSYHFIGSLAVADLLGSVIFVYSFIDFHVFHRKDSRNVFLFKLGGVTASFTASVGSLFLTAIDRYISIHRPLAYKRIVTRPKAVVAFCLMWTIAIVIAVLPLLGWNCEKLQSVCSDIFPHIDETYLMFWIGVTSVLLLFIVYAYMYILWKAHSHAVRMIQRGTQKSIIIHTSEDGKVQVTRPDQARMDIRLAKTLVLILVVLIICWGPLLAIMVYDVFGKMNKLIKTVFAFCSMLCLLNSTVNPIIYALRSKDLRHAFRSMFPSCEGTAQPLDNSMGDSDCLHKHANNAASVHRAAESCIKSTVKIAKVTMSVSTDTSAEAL

Chain of cGMP-inhibited 3',5'-cyclic phosphodiesterase 3A (Homo sapiens) (Q14432 whole entry): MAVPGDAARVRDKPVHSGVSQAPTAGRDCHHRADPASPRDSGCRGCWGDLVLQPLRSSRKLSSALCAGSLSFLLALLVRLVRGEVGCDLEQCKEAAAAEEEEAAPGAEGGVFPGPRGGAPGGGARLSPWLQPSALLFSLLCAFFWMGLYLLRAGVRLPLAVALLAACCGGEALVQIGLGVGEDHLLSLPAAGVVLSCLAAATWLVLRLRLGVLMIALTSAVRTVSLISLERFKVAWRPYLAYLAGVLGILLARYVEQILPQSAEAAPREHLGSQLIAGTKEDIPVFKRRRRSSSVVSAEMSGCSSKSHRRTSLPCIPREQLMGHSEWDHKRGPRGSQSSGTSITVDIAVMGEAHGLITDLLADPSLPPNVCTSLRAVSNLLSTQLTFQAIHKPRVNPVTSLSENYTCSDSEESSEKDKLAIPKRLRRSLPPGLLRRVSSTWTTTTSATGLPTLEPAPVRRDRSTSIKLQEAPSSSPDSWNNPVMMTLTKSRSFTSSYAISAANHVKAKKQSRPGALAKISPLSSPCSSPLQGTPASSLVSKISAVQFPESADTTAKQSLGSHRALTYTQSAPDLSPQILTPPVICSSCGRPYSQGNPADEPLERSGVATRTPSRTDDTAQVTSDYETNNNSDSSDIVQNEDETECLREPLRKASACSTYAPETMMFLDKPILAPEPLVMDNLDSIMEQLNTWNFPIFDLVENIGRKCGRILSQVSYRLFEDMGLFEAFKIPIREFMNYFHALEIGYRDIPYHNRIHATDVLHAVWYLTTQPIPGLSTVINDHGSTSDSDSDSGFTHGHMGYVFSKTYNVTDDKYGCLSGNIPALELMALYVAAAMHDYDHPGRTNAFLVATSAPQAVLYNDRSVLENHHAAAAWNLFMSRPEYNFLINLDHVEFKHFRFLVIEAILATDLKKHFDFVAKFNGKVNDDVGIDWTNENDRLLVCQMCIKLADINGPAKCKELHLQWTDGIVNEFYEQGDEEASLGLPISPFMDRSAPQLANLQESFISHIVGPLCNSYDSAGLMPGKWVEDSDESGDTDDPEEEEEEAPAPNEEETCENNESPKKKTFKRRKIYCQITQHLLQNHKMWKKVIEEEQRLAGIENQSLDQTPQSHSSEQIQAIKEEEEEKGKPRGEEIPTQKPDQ
Chain of Voltage-gated inwardly rectifying potassium channel KCNH2 (Q12809 whole entry): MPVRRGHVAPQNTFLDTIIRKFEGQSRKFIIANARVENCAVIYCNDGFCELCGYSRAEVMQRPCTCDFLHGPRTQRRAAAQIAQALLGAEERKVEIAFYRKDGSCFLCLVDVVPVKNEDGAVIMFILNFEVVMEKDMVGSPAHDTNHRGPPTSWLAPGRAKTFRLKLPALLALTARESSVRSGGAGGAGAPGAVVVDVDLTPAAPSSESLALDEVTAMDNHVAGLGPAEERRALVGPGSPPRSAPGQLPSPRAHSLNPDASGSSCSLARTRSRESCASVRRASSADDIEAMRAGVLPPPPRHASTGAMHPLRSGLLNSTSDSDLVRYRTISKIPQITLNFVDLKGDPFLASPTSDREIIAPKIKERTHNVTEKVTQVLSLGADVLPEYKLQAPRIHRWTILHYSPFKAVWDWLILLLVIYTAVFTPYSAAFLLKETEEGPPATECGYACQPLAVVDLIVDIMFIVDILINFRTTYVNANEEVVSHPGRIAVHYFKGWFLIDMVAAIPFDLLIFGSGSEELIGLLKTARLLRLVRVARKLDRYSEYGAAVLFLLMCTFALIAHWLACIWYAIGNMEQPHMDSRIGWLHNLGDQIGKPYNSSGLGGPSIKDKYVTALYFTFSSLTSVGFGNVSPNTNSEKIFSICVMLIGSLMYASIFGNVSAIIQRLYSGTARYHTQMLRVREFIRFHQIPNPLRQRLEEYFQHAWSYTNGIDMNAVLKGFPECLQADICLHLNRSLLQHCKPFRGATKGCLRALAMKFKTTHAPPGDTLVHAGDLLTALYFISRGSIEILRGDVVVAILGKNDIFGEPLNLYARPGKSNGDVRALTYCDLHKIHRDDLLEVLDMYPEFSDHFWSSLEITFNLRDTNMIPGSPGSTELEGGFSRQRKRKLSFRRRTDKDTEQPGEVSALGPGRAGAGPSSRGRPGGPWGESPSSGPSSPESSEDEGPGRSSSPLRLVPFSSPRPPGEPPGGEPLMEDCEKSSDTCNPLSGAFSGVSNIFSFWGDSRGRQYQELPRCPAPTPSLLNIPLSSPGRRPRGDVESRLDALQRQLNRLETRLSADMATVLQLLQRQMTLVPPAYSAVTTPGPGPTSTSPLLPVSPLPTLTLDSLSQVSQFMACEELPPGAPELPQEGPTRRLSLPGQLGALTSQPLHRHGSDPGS
Chain of 5-hydroxytryptamine receptor 2B (Homo sapiens) (P41595 whole entry): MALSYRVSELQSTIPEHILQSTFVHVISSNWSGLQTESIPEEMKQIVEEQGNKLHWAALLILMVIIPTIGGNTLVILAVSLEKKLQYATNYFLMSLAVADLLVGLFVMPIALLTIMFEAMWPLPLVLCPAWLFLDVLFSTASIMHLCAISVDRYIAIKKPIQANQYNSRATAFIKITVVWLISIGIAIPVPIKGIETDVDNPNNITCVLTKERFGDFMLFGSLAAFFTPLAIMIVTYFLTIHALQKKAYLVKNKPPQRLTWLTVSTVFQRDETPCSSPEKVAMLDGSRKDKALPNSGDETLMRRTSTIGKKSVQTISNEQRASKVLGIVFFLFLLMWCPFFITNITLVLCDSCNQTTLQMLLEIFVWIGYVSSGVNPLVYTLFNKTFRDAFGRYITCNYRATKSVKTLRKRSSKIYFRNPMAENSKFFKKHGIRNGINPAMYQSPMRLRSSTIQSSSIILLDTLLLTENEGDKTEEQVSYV
Chain of Kappa-type opioid receptor (Homo sapiens) (P41145 whole entry): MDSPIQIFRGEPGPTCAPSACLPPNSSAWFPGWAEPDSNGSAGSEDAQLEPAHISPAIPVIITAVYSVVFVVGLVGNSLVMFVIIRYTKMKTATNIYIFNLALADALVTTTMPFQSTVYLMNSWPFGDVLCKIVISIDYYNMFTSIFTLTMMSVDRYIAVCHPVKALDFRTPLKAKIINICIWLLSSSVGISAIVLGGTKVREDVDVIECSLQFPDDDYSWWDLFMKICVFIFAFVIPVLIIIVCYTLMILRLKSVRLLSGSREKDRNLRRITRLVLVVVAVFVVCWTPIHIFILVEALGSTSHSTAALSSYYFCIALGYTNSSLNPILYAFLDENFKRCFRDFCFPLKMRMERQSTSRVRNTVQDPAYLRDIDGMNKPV
Chain of Cannabinoid receptor 2 (Homo sapiens) (P34972 whole entry): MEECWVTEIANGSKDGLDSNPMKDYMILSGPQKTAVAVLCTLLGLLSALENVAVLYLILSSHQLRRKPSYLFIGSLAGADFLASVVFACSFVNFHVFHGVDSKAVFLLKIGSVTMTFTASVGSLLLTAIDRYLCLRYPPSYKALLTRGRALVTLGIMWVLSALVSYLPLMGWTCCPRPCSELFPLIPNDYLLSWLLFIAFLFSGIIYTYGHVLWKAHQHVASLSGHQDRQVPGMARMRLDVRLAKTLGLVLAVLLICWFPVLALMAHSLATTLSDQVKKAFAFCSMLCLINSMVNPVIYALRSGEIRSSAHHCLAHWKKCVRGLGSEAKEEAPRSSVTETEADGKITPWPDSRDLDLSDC
Chain of Mu-type opioid receptor (Homo sapiens) (P35372 whole entry): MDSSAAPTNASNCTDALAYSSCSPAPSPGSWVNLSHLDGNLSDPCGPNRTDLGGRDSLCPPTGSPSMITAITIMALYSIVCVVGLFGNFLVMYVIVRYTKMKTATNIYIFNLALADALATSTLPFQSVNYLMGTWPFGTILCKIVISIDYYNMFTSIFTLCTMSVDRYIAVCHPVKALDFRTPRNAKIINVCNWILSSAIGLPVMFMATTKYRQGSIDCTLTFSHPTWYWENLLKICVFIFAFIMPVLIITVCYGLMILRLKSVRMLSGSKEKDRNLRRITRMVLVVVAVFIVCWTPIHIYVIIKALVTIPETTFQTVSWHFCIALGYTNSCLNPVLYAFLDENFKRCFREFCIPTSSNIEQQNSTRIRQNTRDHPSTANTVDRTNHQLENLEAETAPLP
Chain of D(1A) dopamine receptor (Homo sapiens) (P21728 whole entry): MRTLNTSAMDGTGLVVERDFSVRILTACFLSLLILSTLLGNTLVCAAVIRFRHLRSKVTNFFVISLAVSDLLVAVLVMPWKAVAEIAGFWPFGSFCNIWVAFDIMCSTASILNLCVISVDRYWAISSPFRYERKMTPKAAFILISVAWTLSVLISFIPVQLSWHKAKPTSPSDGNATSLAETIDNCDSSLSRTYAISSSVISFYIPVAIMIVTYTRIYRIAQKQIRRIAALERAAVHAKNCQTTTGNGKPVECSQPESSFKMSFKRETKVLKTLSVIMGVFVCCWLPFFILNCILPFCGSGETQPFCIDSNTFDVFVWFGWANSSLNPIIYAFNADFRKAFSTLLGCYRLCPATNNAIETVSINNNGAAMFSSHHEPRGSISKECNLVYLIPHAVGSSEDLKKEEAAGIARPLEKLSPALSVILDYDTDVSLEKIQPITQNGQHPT

C[C@H](C(=O)O)[C@@H](NC(=O)c1ncnc2[nH]ccc12)c1ccc(Br)cc1
inhibition [1]: -8% | inhibition [2]: -5% | inhibition [3]: 6% | inhibition [4]: -8% | Inhibition [5]: -1% | inhibition [6]: 0% | inhibition [7]: 2% | inhibition [8]: -10% | inhibition [9]: 2% | inhibition [10]: 1% | inhibition [11]: -4% | Inhibition [12]: 14% | Inhibition [13]: 6% | inhibition [14]: 52%

CC(C)[C@H](Nc1ncnc2[nH]c(-c3cnn(C)c3C#N)cc12)c1ccc2c(n1)OCCO2
inhibition [1]: 34% | inhibition [2]: 44% | inhibition [15]: 46% | inhibition [3]: 1% | inhibition [4]: 27% | Inhibition [5]: 4% | inhibition [6]: 2% | inhibition [7]: 31% | inhibition [8]: 15% | inhibition [9]: 43% | inhibition [10]: 15% | inhibition [11]: 18% | Inhibition [12]: 29% | Inhibition [13]: 10% | inhibition [14]: 37%

CC(C)[C@@H](Nc1ncnc2[nH]c(-c3cnn(C)c3C#N)cc12)c1ccc2c(n1)OCCO2
inhibition [1]: 11% | inhibition [2]: 16% | inhibition [15]: 14% | inhibition [3]: 20% | inhibition [4]: 10% | Inhibition [5]: 8% | inhibition [6]: -2% | inhibition [7]: 56% | inhibition [8]: 77% | inhibition [9]: 22% | inhibition [10]: 14% | inhibition [11]: 40% | Inhibition [12]: 32% | Inhibition [13]: 12% | inhibition [14]: 37%

Cc1nn(C)cc1-c1cc2c(N[C@H](c3ccc4c(c3)S(=O)(=O)CCC4)C(C)C)ncnc2[nH]1
inhibition [1]: 8% | inhibition [2]: -8% | inhibition [15]: 0% | inhibition [3]: -8% | inhibition [4]: 3% | Inhibition [5]: 5% | inhibition [6]: -2% | inhibition [7]: 45% | inhibition [8]: 28% | inhibition [9]: 10% | inhibition [10]: 51% | inhibition [11]: 43% | Inhibition [12]: 3% | Inhibition [13]: -1% | inhibition [14]: 46%

Cn1ncc(-c2cc3c(N[C@@H](c4ccc5c(n4)OCCO5)C(C)(C)C)ncnc3[nH]2)c1C#N
inhibition [1]: 54% | inhibition [2]: 31% | inhibition [15]: 33% | inhibition [3]: 4% | inhibition [4]: 9% | Inhibition [5]: 10% | inhibition [6]: -5% | inhibition [7]: 33% | inhibition [8]: 28% | inhibition [9]: 15% | inhibition [10]: -2% | inhibition [11]: -5% | Inhibition [12]: 36% | Inhibition [13]: 34% | inhibition [14]: 37%

COc1ccc([C@H](Cc2nnn[nH]2)NC(=O)c2ncnc3[nH]ccc23)cc1
inhibition [1]: -7% | inhibition [15]: -8% | inhibition [3]: -5% | Inhibition [5]: 0% | inhibition [6]: 4% | inhibition [7]: 2% | inhibition [8]: -3% | inhibition [9]: 5% | inhibition [10]: -4% | Inhibition [12]: 5% | Inhibition [13]: -3% | inhibition [14]: 62%

CNC(=O)Cn1cc(-c2cc3c(N[C@@H](c4ccc5c(c4)S(=O)(=O)CCC5)C(C)C)ncnc3[nH]2)cn1
inhibition [1]: 11% | inhibition [15]: -10% | inhibition [3]: -4% | inhibition [4]: 1% | Inhibition [5]: 8% | inhibition [7]: 21% | inhibition [8]: 3% | inhibition [9]: 13% | inhibition [10]: 12% | inhibition [11]: 25% | Inhibition [12]: 4% | Inhibition [13]: 11% | inhibition [14]: -9%

CC(C)[C@H](Nc1ncnc2[nH]ccc12)c1ccc2c(c1)S(=O)(=O)CCC2
inhibition [1]: -2% | inhibition [3]: -2% | inhibition [4]: -4% | Inhibition [5]: 7% | inhibition [6]: 1% | inhibition [7]: 84% | inhibition [8]: 8% | inhibition [9]: 12% | inhibition [10]: 12% | inhibition [11]: 54% | Inhibition [12]: 20% | Inhibition [13]: -5% | inhibition [14]: 29%

CC(C)[C@@H](Nc1ncnc2[nH]c(C(=O)N[C@@H]3CCN(C)C3)cc12)c1ccc2c(c1)S(=O)(=O)CCC2
inhibition [1]: 38% | inhibition [2]: -8% | inhibition [15]: -10% | inhibition [3]: 7% | inhibition [4]: -3% | Inhibition [5]: 3% | inhibition [6]: -2% | inhibition [7]: 78% | inhibition [8]: 7% | inhibition [9]: 14% | inhibition [10]: 1% | inhibition [11]: 6% | Inhibition [12]: 7% | Inhibition [13]: 16% | inhibition [14]: 4%

CNCc1cc(-c2cc3c(N[C@@H](c4ccc5c(c4)S(=O)(=O)CCC5)C(C)C)ncnc3[nH]2)co1
inhibition [1]: 50% | inhibition [2]: -8% | inhibition [15]: 3% | inhibition [4]: 14% | Inhibition [5]: 11% | inhibition [6]: 0% | inhibition [7]: 57% | inhibition [8]: -5% | inhibition [9]: 6% | inhibition [10]: 29% | Inhibition [13]: 19% | inhibition [14]: -5%
